In patent publication US12410411B2, “Biocatalytic techniques” (HYPHA DISCOVERY LIMITED, priority 2019, dated 2025):

Experiments:
P450SeuC10 [1] = experiment: Whole-cell biotransformation in E. coli expressing P450SeuC10, ferredoxinSeuF08 and ferredoxin reductaseSCF15A (Example 4B); format: cell-based, Streptomyces eurythermus NRRL 2539; settings: for Overall % conversion to oxidised products: SeuC10, E. coli whole cells, 0.1 mg/ml substrate, 27° C., pH 7.4; for inferred yield of oxidised product (UPLC-MS): product formed from parent substrate dosed at 100 mg/L, E. coli whole cells, 100 μL screening scale
Source text: Cell pellets were provided as in Example 2. […] Reactions were stopped and analysed as in Example 4.

P450AluC09 [2] = experiment: Substrate testing with whole cells containing P450AluC09 (Example 5, method of Example 4B); format: cell-based, Amycolatopsis lurida NRRL 2430; settings: AluC09, whole cells, 0.1 mg/ml substrate
Description: Cell pellets were provided as in Example 2. The cell pellets were defrosted, washed with 0.85% NaCl buffer and centrifuged at 4,000 RCF, 30 minutes at 4° C. The supernatant was discarded and the pellet was flash frozen in liquid nitrogen. The pellet was allowed to defrost again and resuspended in 40 mL of buffer containing 50 mM potassium phosphate, pH 7.4, 5 mM MgCl2 and 100 mM glucose. Biocatalysis was performed shaking at 27° C. with 0.1 mg/ml substrate compound such as carbamazepine, bosentan, diclofenac, meloxicam, tivantinib, ambroxide or others as shown in Table 2. Reactions were stopped and analysed as in Example 4.
(§1) Other cytochrome P450 enzymes were expressed as described above, and their activities tested against the same substrates as P450SeuC10 using the methods described in Example 4. The other P450s tested were: P450AluC09 from Amycolatopsis lurida NRRL 2430 (SEQ ID NO: 13, see WO 2018/091885); SriC12 from Streptomyces rimosus NRRL 2234 (SEQ ID NO: 14, see WO 2020/109776); SriC20 from Streptomyces rimosus NRRL 2234 (SEQ ID NO: 15, see WO 2020/109776); SriC22 from Streptomyces rimosus NRRL 2234 (SEQ ID NO: 16, see WO 2020/109776); and CYP107L from Streptomyces platensis DSM 40041 (SEQ ID NO: 17, see Worsch et al., Biotechnology and Bioengineering 115: 2156-2166, 2018).

P450SeuC10 [3] = experiment: Oxidase activity/spectrum testing with lyophilised material containing P450SeuC10, ferredoxinSeuF08 and ferredoxin reductaseSCF15A (Example 4A); format: biochemical, Streptomyces eurythermus NRRL 2539; settings: for Overall % conversion to oxidised products: SeuC10, lyophilised material, 0.1 mg/ml substrate, 27° C., 16-20 hours, pH 8.0, UPLC-MS; for inferred yield of oxidised product (UPLC-MS): product formed from parent substrate dosed at 100 mg/L, lyophilised material, 100 μL screening scale
Description: Suspended cell pellets were provided as described in Example 2, containing recombinant P450, ferredoxin and ferredoxin reductase in 100 mM potassium phosphate buffer pH 8.0, 5 mM MgCl2, 5 mM TCEP, and 1 mM PMSF in a ratio of 3.0 ml of buffer per 1 g of cells. Lysed cells were produced by high pressure disruption using three cycles of 30 kpsi. Lysed material was centrifuged at 38,000×g for 40 minutes (4° C.) and the supernatant was sterilized by passing through a 0.2 micron filter to provide the cell-free enzyme preparation containing recombinant P450, ferredoxin and ferredoxin reductase.
(§2) Lyophilised material of recombinant P450, ferredoxin and ferredoxin reductase proteins was made as described in Example 3 and reconstituted in high purity water to the original volume. Biocatalysis was performed shaking at 27° C. in the following conditions: 100 mM potassium phosphate pH 8.0, 5 mM MgCl2 (both present in the reconstituted enzyme preparation) and 0.1 mg/ml substrate compound such as carbamazepine, bosentan, diclofenac, meloxicam, tivantinib or ambroxide.
(§3) Concentrations of P450, ferredoxin and ferredoxin reductase were as extracted (Example 3). Reactions were initiated by addition of 10× stock of cofactor mixture (50 mM G6P, 10 mM NADP, 10 UN/ml G6PDH) to provide a final volume of e.g., 10 μL to 90 μL for 100 μL total reaction volumes. After 16-20 hours, reactions were extracted with an equal volume of acetonitrile, centrifuged to remove precipitated proteins and conversion assessed by UPLC-MS analysis.
UPLC data were obtained as follows:
Column: Acquity UPLC BEH Shield RP18 1.7 μm 2.1 mm i.d. 50 mm length
Solvents: H2O, B: Acetonitrile, both with 0.1% Formic acid
Detector: Waters Acquity UPLC PDA (UV-Vis detection) and Waters Acquity UPLC QDA (MS)

P450AluC09 [4] = experiment: Substrate testing with lyophilised material containing P450AluC09 (Example 5, method of Example 4A); format: biochemical, Amycolatopsis lurida NRRL 2430; settings: AluC09, lyophilised material, 0.1 mg/ml substrate
Description: as §2, §3, §1

SriC12 = experiment: Substrate testing with lyophilised material containing SriC12 (Example 5, method of Example 4A); format: biochemical, Streptomyces rimosus NRRL 2234; settings: 0.1 mg/ml substrate
Description: as §2, §3, §1

SriC20 = experiment: Substrate testing with lyophilised material containing SriC20 (Example 5, method of Example 4A); format: biochemical, Streptomyces rimosus NRRL 2234; settings: 0.1 mg/ml substrate
Description: as §2, §3, §1

SriC22 = experiment: Substrate testing with lyophilised material containing SriC22 (Example 5, method of Example 4A); format: biochemical, Streptomyces rimosus NRRL 2234; settings: 0.1 mg/ml substrate
Description: as §2, §3, §1

| Structure (SMILES) | Overall % conversion to oxidised products (P450SeuC10 [1]) | Overall % conversion to oxidised products (P450AluC09 [2]) | Overall % conversion to oxidised products (P450SeuC10 [3]) | Overall % conversion to oxidised products (P450AluC09 [4]) | Overall % conversion to oxidised products (SriC12) | Overall % conversion to oxidised products (SriC20) | Overall % conversion to oxidised products (SriC22) | also measured |
| --- | --- | --- | --- | --- | --- | --- | --- | --- |
| COc1ccccc1Oc1c(NS(=O)(=O)c2ccc(C(C)(C)C)cc2)nc(-c2ncccn2)nc1OCCO [Bosentan] | 87.1% | 100% | – | – | – | – | – | – |
| O=C(O)Cc1ccccc1Nc1c(Cl)cccc1Cl [Diclofenac] | – | – | 98.3% | 89.9% | 33.9% | 0% | 0.9% | – |
| C/C(=C\c1csc(C)n1)[C@@H]1C[C@@H]2O[C@]2(C)CCC[C@H](C)[C@H](O)[C@@H](C)C(=O)C(C)(C)[C@@H](O)CC(=O)O1 [Epothilone B] | – | – | 35.1% | 46% | 2% | 0% | 0% | – |
| CCC[C@H](N[C@@H](C)C(=O)N1[C@H](C(=O)O)C[C@@H]2CCCC[C@@H]21)C(=O)OCC [Perindopril] | 14.4% | 0% | – | – | – | – | – | – |
| Cc1ccc(-n2nc(C(C)(C)C)cc2NC(=O)Nc2ccc(OCCN3CCOCC3)c3ccccc23)cc1 [BIRB796] | 19.3% | 5.2% | – | – | – | – | – | – |
| CN1C(C(=O)Nc2ncc(CO)s2)=C(O)c2ccccc2S1(=O)=O [5′-hydroxymethylmeloxicam] | – | – | – | – | – | – | – | inferred yield of oxidised product (UPLC-MS) (P450SeuC10 [3]): 28.4% |
| NC(=O)N1c2ccccc2C2OC2c2ccccc21 (stereo not drawn) [carbamazepine-10,11-epoxide] | – | – | – | – | – | – | – | inferred yield of oxidised product (UPLC-MS) (P450SeuC10 [3]): 49% |
| CC(C)(C)c1ccc(S(=O)(=O)Nc2nc(-c3ncccn3)nc(OCCO)c2Oc2ccccc2O)cc1 [O-desmethylbosentan] | – | – | – | – | – | – | – | inferred yield of oxidised product (UPLC-MS) (P450SeuC10 [1]): 3.4% |
| O=C(O)Cc1cc(O)ccc1Nc1c(Cl)cccc1Cl [5-hydroxydiclofenac] | – | – | – | – | – | – | – | inferred yield of oxidised product (UPLC-MS) (P450SeuC10 [1]): 19.4% |
| Fc1ccc(C(OCCN2CCN(CCCc3ccccc3)CC2)c2ccc(F)cc2)cc1 [Vanoxerine] | 26.5% | 0% | – | – | – | – | – | – |
| CC1(C)CCC[C@]2(C)[C@H]3CCO[C@]3(C)CC[C@@H]12 [Ambroxide] | – | – | 72.8% | 0% | 0% | 0% | 0% | – |
| CCCCNC(=O)NS(=O)(=O)c1ccc(C)cc1 [Tolbutamide] | – | – | 21% | 0% | 34% | 0% | 0% | – |
| CN1C(C(=O)Nc2ncc(C(=O)O)s2)=C(O)c2ccccc2S1(=O)=O [5′-carboxylmeloxicam] | – | – | – | – | – | – | – | inferred yield of oxidised product (UPLC-MS) (P450SeuC10 [3]): 5.3% |
| COc1ccccc1Oc1c(NS(=O)(=O)c2ccc(C(C)(C)CO)cc2)nc(-c2ncccn2)nc1OCCO [hydroxy-bosentan] | – | – | – | – | – | – | – | inferred yield of oxidised product (UPLC-MS) (P450SeuC10 [1]): 81% |
| CC(C)(C)[C@H]1CC[C@H](CC2=C(O)C(=O)c3ccccc3C2=O)CC1 [Buparvaquone] | 23.4% | 48.8% | – | – | – | – | – | – |
| CCCCCCCCCCCCCCCC(=O)O [Palmitic acid] | – | – | 70.2% | 28.5% | 35.5% | 0% | 0% | – |
| O=C(O)Cc1ccccc1Nc1c(Cl)cc(O)cc1Cl [4′-hydroxydiclofenac] | – | – | – | – | – | – | – | inferred yield of oxidised product (UPLC-MS) (P450SeuC10 [1]): 73.4% |
| NC(=O)N1c2ccccc2C=Cc2ccccc21 [Carbamazepine] | – | – | 49.2% | 0% | 3.2% | 0% | 0% | – |
| N#CC[C@H](C1CCCC1)n1cc(-c2ncnc3[nH]ccc23)cn1 [Ruxolitinib] | 38.6% | 34.3% | – | – | – | – | – | – |
| CC(C)c1nc(CN(C)C(=O)N[C@H](C(=O)N[C@@H](Cc2ccccc2)C[C@H](O)[C@H](Cc2ccccc2)NC(=O)OCc2cncs2)C(C)C)cs1 [Ritonavir] | 21.6% | 86.3% | – | – | – | – | – | – |
